Assay results as given in the supplement of paper PMC10307832.

Columns and labels:
Test in all cases: relative viability (nuclei count vs DMSO), 5 days (fraction); higher = more cells survive
[1] = compound: C1COCCN1C2=NC(=NC3=C2OC4=C3C=CC=N4)C5=CC(=CC=C5)NC(=O)C6=CN=C(C=C6)N + O=C(c1cc(Cc2n[nH]c(=O)c3ccccc23)ccc1F)N1CCN(C(=O)C2CC2)CC1 [Olaparib] (partner 8 µM)
In short: (§1)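 Medians of duplicate plates are given as relative viability. That measure is the nuclei count in treated wells divided by the count in vehicle wells. Counts were taken on 4× images of lung cancer cell lines in 1536-well plates, 5 days after pin-tool dosing the day after seeding with one drug alone or a fixed anchor-drug dose plus five library-drug doses (not always all listed) in √10 steps.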

SGI-1776 + Linsitinib = compound: CN1CCC(CNc2ccc3ncc(-c4cccc(OC(F)(F)F)c4)n3n2)CC1 [SGI-1776] + C[C@]1(O)C[C@@H](c2nc(-c3ccc4ccc(-c5ccccc5)nc4c3)c3c(N)nccn32)C1 [Linsitinib] (partner 1 µM)
In short: as §1

[2] = compound: C1COCCN1C2=NC(=NC3=C2OC4=C3C=CC=N4)C5=CC(=CC=C5)NC(=O)C6=CN=C(C=C6)N + Cc1cc(Nc2cc(N3CCN(C)CC3)nc(Sc3ccc(NC(=O)C4CC4)cc3)n2)n[nH]1 [Tozasertib] (partner 0.1 µM)
In short: as §1

SGI-1776 + Phenformin = compound: CN1CCC(CNc2ccc3ncc(-c4cccc(OC(F)(F)F)c4)n3n2)CC1 [SGI-1776] + N=C(N)NC(=N)NCCc1ccccc1 [Phenformin] (partner 250 µM)
In short: as §1

Cell Line | relative viability ([1]; first compound 0.02 µM) | relative viability ([1]; first compound 0.06325 µM) | relative viability ([1]; first compound 0.2 µM) | relative viability ([1]; first compound 0.6325 µM) | relative viability ([1]; first compound 2 µM) | relative viability (SGI-1776 + Linsitinib; first compound 0.08 µM) | relative viability (SGI-1776 + Linsitinib; first compound 0.8 µM) | relative viability (SGI-1776 + Linsitinib; first compound 2.53 µM) | relative viability (SGI-1776 + Linsitinib; first compound 8 µM) | relative viability ([2]; first compound 0.02 µM) | relative viability ([2]; first compound 0.06325 µM) | relative viability ([2]; first compound 0.2 µM) | relative viability ([2]; first compound 0.6325 µM) | relative viability ([2]; first compound 2 µM) | relative viability (SGI-1776 + Phenformin; first compound 0.08 µM) | relative viability (SGI-1776 + Phenformin; first compound 0.8 µM) | relative viability (SGI-1776 + Phenformin; first compound 2.53 µM) | relative viability (SGI-1776 + Phenformin; first compound 8 µM)
LCLC-97TM1 | 0.533 | 0.388 | 0.341 | 0.33 | 0.287 | 0.193 | 0.154 | 0.187 | 0.16 | 0.266 | 0.214 | 0.155 | 0.405 | 0.261 | 0.487 | 0.434 | 0.465 | 0.456
NCI-H2347 | 0.532 | 0.625 | 0.571 | 0.517 | 0.532 | 0.995 | 0.992 | 0.966 | 0.865 | 0.513 | 0.711 | 0.42 | 0.544 | 0.387 | 0.652 | 0.44 | 0.333 | 0.396
NCI-H1915 | 0.215 | 0.273 | 0.245 | 0.266 | 0.269 | 1.11 | 1.12 | 1.13 | 1.1 | 0.439 | 0.492 | 0.392 | 0.408 | 0.264 | 0.37 | 0.368 | 0.382 | 0.357
NCI-H647 | 0.684 | 0.69 | 0.573 | 0.606 | 0.256 | 1.29 | 1.16 | 0.978 | 0.739 | 0.155 | 0.292 | 0.252 | 0.137 | 0.145 | 0.499 | 0.499 | 0.47 | 0.151
NCI-H520 | 0.383 | 0.352 | 0.332 | 0.328 | 0.292 | 1.17 | 1.02 | 1.05 | 0.848 | 0.431 | 0.437 | 0.413 | 0.479 | 0.327 | 0.687 | 0.597 | 0.53 | 0.316
HCC-366 | 0.488 | 0.419 | 0.322 | 0.412 | 0.218 | 0.731 | 0.697 | 0.633 | 0.413 | 0.0782 | 0.144 | 0.0599 | 0.0546 | 0.0428 | 0.61 | 0.527 | 0.564 | 0.431
NCI-H2087 | 0.582 | 0.62 | 0.546 | 0.636 | 0.32 | 0.913 | 0.863 | 1.09 | 1.12 | 0.249 | 0.265 | 0.202 | 0.258 | 0.209 | 0.444 | 0.394 | 0.432 | 0.44
PC-3 [JPC-3] | 1.19 | 1.19 |  | 1.17 | 0.709 | 0.999 | 0.974 | 1.02 | 0.917 | 0.914 | 0.932 | 0.85 | 0.893 | 0.507 | 0.509 | 0.476 | 0.511 | 0.451
HOP-62 | 0.632 | 0.5 | 0.447 | 0.7 | 0.255 | 0.823 | 0.877 | 1.23 | 1.04 | 0.358 | 0.396 | 0.337 | 0.312 | 0.225 | 0.728 | 0.616 | 0.704 | 0.623
NCI-H2126 | 0.889 | 0.962 | 0.876 | 0.865 | 0.532 | 0.731 | 0.731 | 0.684 | 0.695 | 0.868 | 0.895 | 0.767 | 0.702 | 0.518 | 0.543 | 0.509 | 0.535 | 0.473
NCI-H1793 | 0.831 | 0.884 | 0.968 | 0.769 | 0.508 | 1.06 | 0.895 | 1 | 0.794 | 0.314 | 0.305 | 0.262 | 0.29 | 0.279 | 0.389 | 0.219 | 0.262 | 0.249
RERF-LC-KJ | 0.953 | 0.982 | 0.866 | 0.93 | 0.554 | 0.909 | 0.877 | 0.9 | 0.711 | 0.594 | 0.577 | 0.35 | 0.327 | 0.326 | 0.464 | 0.415 | 0.439 | 0.32
H3255 | 0.522 | 0.531 | 0.531 | 0.56 | 0.436 | 1.1 | 1.04 | 0.921 | 0.792 | 0.779 | 0.639 | 0.736 | 0.847 | 0.957 | 0.372 | 0.391 | 0.331 | 0.325
EMC-BAC-2 | 0.483 | 0.484 | 0.472 | 0.476 | 0.445 | 0.868 | 0.846 | 0.838 | 0.737 | 0.302 | 0.289 | 0.26 | 0.299 | 0.303 | 0.517 | 0.475 | 0.469 | 0.419
CAL-12T | 0.66 | 0.727 | 0.69 | 0.764 | 0.569 | 0.916 | 0.821 | 0.821 | 0.756 | 0.325 | 0.27 | 0.206 | 0.24 | 0.177 | 0.558 | 0.647 | 0.531 | 0.558
NCI-H661 | 0.789 | 0.832 | 0.717 | 0.876 | 0.426 | 0.74 | 0.643 | 0.545 | 0.502 | 0.34 | 0.347 | 0.328 | 0.342 | 0.354 | 0.269 | 0.271 | 0.306 | 0.246
SK-MES-1 | 0.71 | 0.816 | 0.611 | 0.51 | 0.427 | 1.09 | 1.09 | 1.14 | 1.03 | 0.957 | 1.01 | 0.824 | 0.851 | 0.362 | 0.643 | 0.593 | 0.53 | 0.493
NCI-H1437 | 0.645 | 0.682 | 0.613 | 0.681 | 0.239 | 1.03 | 1.03 | 0.952 | 0.452 | 0.437 | 0.424 | 0.398 | 0.377 | 0.241 | 0.322 | 0.259 | 0.296 | 0.297
PC-14 | 0.304 | 0.284 | 0.249 | 0.248 | 0.186 | 1.06 | 0.965 | 0.938 | 0.802 | 0.593 | 0.651 | 0.566 | 0.486 | 0.307 | 0.573 | 0.648 | 0.579 | 0.151
LK-2 | 0.609 | 0.902 | 0.691 | 0.651 | 0.464 | 0.697 | 0.773 | 0.523 | 0.418 | 0.172 | 0.156 | 0.167 | 0.154 | 0.176 | 0.396 | 0.515 | 0.428 | 0.168
NCI-H1651 | 0.177 | 0.18 | 0.195 | 0.171 | 0.161 | 1.01 | 0.925 | 0.938 | 0.566 | 0.685 | 0.76 | 0.416 | 0.522 | 0.338 | 0.386 | 0.396 | 0.311 | 0.251
LC-2-ad | 0.678 | 0.705 | 0.682 | 0.846 | 0.648 | 0.842 | 0.959 | 0.911 | 0.639 | 0.428 | 0.499 | 0.46 | 0.473 | 0.392 | 0.572 | 0.554 | 0.667 | 0.362
NCI-H1734 | 0.645 | 0.646 | 0.611 | 0.564 | 0.496 | 0.919 | 0.895 | 0.935 | 0.749 | 0.272 | 0.254 | 0.257 | 0.229 | 0.186 | 0.41 | 0.366 | 0.394 | 0.284
NCI-H441 | 0.451 | 0.553 | 0.686 | 0.536 | 0.414 | 0.506 | 0.588 | 0.645 | 0.354 | 0.609 | 0.496 | 0.416 | 0.401 | 0.299 | 0.759 | 0.769 | 0.82 | 0.663
NCI-H727 | 0.723 | 0.802 | 0.746 | 0.605 | 0.606 | 0.254 | 0.26 | 0.346 | 0.241 | 0.668 | 0.839 | 0.599 | 0.467 | 0.524 | 0.525 | 0.577 | 0.552 | 0.498
NCI-H23 | 0.417 | 0.314 | 0.281 | 0.3 | 0.226 | 0.724 | 0.541 | 0.517 | 0.411 | 0.329 |  | 0.185 | 0.615 | 0.263 | 0.77 | 0.702 | 0.752 | 0.72
NCI-H1395 | 0.473 | 0.427 | 0.422 | 0.461 | 0.377 | 1.19 | 1.08 | 0.938 | 0.746 | 0.78 | 0.709 | 0.772 | 0.719 | 0.576 | 0.464 | 0.434 | 0.46 | 0.413
NCI-H596 | 0.589 | 0.668 | 0.601 | 0.747 | 0.621 | 1.05 | 0.999 | 0.981 | 0.943 | 0.85 | 0.932 | 0.874 | 0.761 | 0.661 | 0.724 | 0.688 | 0.701 | 0.704
NCI-H460 | 0.578 | 0.537 | 0.376 | 0.413 | 0.182 | 0.683 | 0.859 | 0.785 | 0.459 | 0.465 | 0.509 | 0.209 | 0.392 | 0.0489 | 0.502 | 0.471 | 0.477 | 0.361
